From US11191762B2, “Alkyl substituted triazole compounds as agonists of the APJ Receptor” (priority 2016, dated 2021)

biological target: human APJ receptor (Homo sapiens (Human), UniProt P35414); test: biochemical; format: biochemical; details: not given
Outline: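 [35S]GTPγS binding to membranes from CHO cells stably expressing human APJ, captured on WGA PS beads (5 μg/well). Buffer: 20 mM HEPES pH 7.5, 5 mM MgCl2, 100 mM NaCl, 0.1% BSA, with 3 μM GDP and 0.1 nM [35S]GTPγS final; compounds tested as 22-point 2-fold dilutions.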

Chain of human APJ receptor (P35414 whole entry): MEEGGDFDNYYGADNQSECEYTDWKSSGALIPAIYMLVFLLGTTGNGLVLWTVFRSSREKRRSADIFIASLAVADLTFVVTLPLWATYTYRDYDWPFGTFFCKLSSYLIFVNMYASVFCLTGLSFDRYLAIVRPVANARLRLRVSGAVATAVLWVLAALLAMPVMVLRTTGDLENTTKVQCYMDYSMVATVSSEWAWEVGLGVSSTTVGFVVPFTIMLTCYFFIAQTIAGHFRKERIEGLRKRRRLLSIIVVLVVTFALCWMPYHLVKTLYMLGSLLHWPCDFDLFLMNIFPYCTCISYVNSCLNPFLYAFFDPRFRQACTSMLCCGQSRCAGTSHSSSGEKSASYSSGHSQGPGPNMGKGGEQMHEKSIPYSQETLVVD

| SMILES | EC50 [nM] |
| --- | --- |
| [2H]C([2H])([2H])OCc1nnc(NS(=O)(=O)[C@@H](C)[C@H](OC)c2ncc(Cl)cn2)n1-c1c(OC)cccc1OC [Example 129.0, (1R,2S)-1-(5-chloro-2-pyrimidinyl)-N-(4-(2,6-dimethoxyphenyl)-5-(((˜2-H_3_)methyloxy)methyl)-4H-1,2,4-triazol-3-yl)-1-methoxy-2-propanesulfonamide] | 4.3 |

same assay, conditions: [35S]GTPγS binding, membranes from CHO cells stably expressing human APJ receptor; read-out: Activity hAPJ SPA EC50 IP

| SMILES | EC50 [nM] |
| --- | --- |
| COCc1nnc(NS(=O)(=O)[C@@H](C)[C@H](C)c2cnc(OC)cn2)n1-c1c(OC)cccc1OC [Example 74.0, (2S,3R)-N-(4-(2,6-dimethoxyphenyl)-5-(methoxymethyl)-4H-l,2,4-triazol-3-yl)-3-(5-methoxypyrazin-2-yl)butane-2-sulfonamide] | 16 |
| COc1ncnc(OC)c1-n1c(COC(C)C)nnc1NS(=O)(=O)[C@@H](C)[C@H](OC)c1ncc(Cl)cn1 [Example 79.0, (1R,2S)-1-(5-chloropyrimidin-2-yl)-N-(4-(4.6-dimethoxypyrimidin-5-yl)-5-(isopropoxymethyl)-4H-1,2,4-triazol-3-yl)-1-methoxypropane-2-sulfonamide] | 2.9 |
| COc1ncnc(OC)c1-n1c(COC(C)C)nnc1NS(=O)(=O)[C@@H](C)[C@H](C)c1ncc(Cl)cn1 [Example 80.0, (2S,3R)-3-(5-chloropyrimidin-2-yl)-N-(4-(4,6-dimethoxypyrimidin-5-yl)-5-(isopropoxymethyl)-4H-1,2,4-triazol-3-yl)butane-2-sulfonamide] | 2.4 |
| COCc1nnc(NS(=O)(=O)[C@@H](C)[C@H](OC)c2ncc(Cl)cn2)n1C(COC)COC [Example 124.0, (1R,2S)-1-(5-Chloro-2-pyrimidinyl)-N-(4-(1,3-dimethoxy-2-propanyl)-5-(methoxymethyl)-4H-1,2,4-triazol-3-yl)-1-methoxy-2-propanesulfonamide] | 85 |
| COc1ncnc(OC)c1-n1c(COC(F)F)nnc1NS(=O)(=O)[C@@H](C)[C@H](C)c1ncc(Cl)cn1 [Example 127.0, (2S,3R)-3-(5-chloropyrimidin-2-yl)-N-(5-((difluoromethoxy)methyl)-4-(4,6-dimethoxypyrimidin-5-yl)-4H-1,2,4-triazol-3-yl)butane-2-sulfonamide] | 38 |
| COc1ncnc(OC)c1-n1c(COC(F)F)nnc1NS(=O)(=O)[C@@H](C)[C@H](OC)c1ncc(Cl)cn1 [Example 128.0, (1R,2S)-1-(5-chloropyrimidin-2-yl)-N-(5-((difluoromethoxy)methyl)-4-(4,6-dimethoxypyrimidin-5-yl)-4H-1,2,4-triazol-3-yl)-1-methoxypropane-2-sulfonamide] | 60 |
| COCc1nnc(NS(=O)(=O)[C@@H](C)[C@H](C)c2ncc(OC)cn2)n1-c1c(OC)cccc1OC [Example 130.0] | 12 |
| COCc1nnc(NS(=O)(=O)[C@@H](C)[C@H](OC)c2ncc(Cl)cn2)n1-c1c(F)cccc1F [Example 131.0] | 20 |
| COCc1nnc(NS(=O)(=O)[C@@H](C)[C@H](OC)c2ncc(Cl)cn2)n1-c1ccccc1OC [Example 132.0] | 11 |
| COc1ncnc(OC)c1-n1c(NS(=O)(=O)[C@@H](C)[C@H](OC)c2ncc(Cl)cn2)nnc1C(C)C [Example 133.0, (1R,2S)-1-(5-chloro-2-pyrimidinyl)-N-(4-(4,6-dimethoxy-5-pyrimidinyl)-5-(2-propanyl)-4H-1,2,4-triazol-3-yl)-1-methoxy-2-propanesulfonamide] | 22 |
| COCc1nnc(NS(=O)(=O)[C@@H](C)[C@@H](OC(C)C)c2ncc(Cl)cn2)n1-c1c(OC)ncnc1OC [Example 134.0] | 12 |
| COc1ncnc(OC)c1-n1c(COCC(F)(F)F)nnc1NS(=O)(=O)[C@@H](C)[C@H](OC)c1ncc(Cl)cn1 [Example 135.0, (1R,2S)-1-(5-chloro-2-pyrimidinyl)-N-(4-(4,6-dimethoxy-5-pyrimidinyl)-5-((2,2,2-trifluoroethoxy)methyl)-4H-1,2,4-triazol-3-yl)-1-methoxy-2-propanesulfonamide] | 40 |
| COc1cccc(OC)c1-n1c(NS(=O)(=O)[C@@H](C)[C@H](C)c2ncc(Cl)cn2)nnc1C(F)(F)c1ccccn1 [Example 136.0] | 35 |
| COc1cccc(OC)c1-n1c(NS(=O)(=O)[C@@H](C)[C@H](C)c2ncc(C)cn2)nnc1C(F)(F)c1ccccn1 [Example 137.0] | 230 |
| COc1ncnc(OC)c1-n1c(NS(=O)(=O)[C@@H](C)[C@H](O)c2ncc(C)cn2)nnc1C(C)(C)c1ccccc1 [Example 138.0] | 860 |
| CO[C@H](c1ncc(Cl)cn1)[C@H](C)S(=O)(=O)Nc1nnc(CC(F)(F)F)n1C1CCOCC1 [Example 139.0] | > 4200 |
| COCc1nnc(NS(=O)(=O)[C@@H](C)[C@H](OC)c2ncc(Cl)cn2)n1C1(c2cccnc2)CC1 [Example 140.0, (1R,2S)-1-(5-chloropyrimidin-2-yl)-1-methoxy-N-(5-(methoxymethyl)-4-(1-(pyridin-3-yl)cyclopropyl)-4H-1,2,4-triazol-3-yl)propane-2-sulfonamide] | 29 |
| COc1cccc(OC)c1-n1c(Cc2ccncc2)nnc1NS(=O)(=O)[C@@H](C)[C@H](C)c1ncc(Cl)cn1 [Example 141.0, (2S,3R)-3-(5-Chloro-2-pyrimidinyl)-N-(4-(2,6-dimethoxyphenyl)-5-(4-pyridinylmethyl)-4H-1,2,4-triazol-3-yl)-2-butanesulfonamide] | 100 |
| COCc1nnc(NS(=O)(=O)[C@@H](C)[C@H](OC)c2ncc(Cl)cn2)n1C(C)C [Example 144.0] | 1200 |
| COCc1nnc(NS(=O)(=O)[C@@H](C)[C@H](OC)c2ncc(Cl)cn2)n1C1(COC)CC1 [Example 145.0] | 240 |
| COCCc1nnc(NS(=O)(=O)[C@@H](C)[C@H](OC)c2ncc(Cl)cn2)n1C(COC)COC [Example 146.0] | 250 |

same assay, conditions: read-out: Activity hAPJ SPA EC50 IP

| SMILES | EC50 [nM] |
| --- | --- |
| COCc1nnc(NS(=O)(=O)[C@@H](C)[C@H](C)c2ncc(F)cn2)n1-c1c(OC)cccc1OC [Example 68.0, (2S,3R)-N-(4-(2,6-dimethoxyphenyl)-5-(methoxymethyl)-4H-1,2,4-triazol-3-yl)-3-(5-fluoropyrimidin-2-yl)butane-2-sulfonamide] | 33 |
| COc1cccc(OC)c1-n1c(COC(C)C)nnc1NS(=O)(=O)[C@@H](C)[C@H](OC)c1ncc(Cl)cn1 [Example 69.0, (1R,2S)-1-(5-chloropyrimidin-2-yl)-N-(4-(2,6-dimethoxyphenyl)-5-(isopropoxymethyl)-4H-1,2,4-triazol-3-yl)-1-methoxypropane-2-sulfonamide] | 1.2 |
| CCO[C@H](c1ncc(C)cn1)[C@H](C)S(=O)(=O)Nc1nnc(COC)n1-c1c(OC)cccc1OC [Example 73.0, (1R,2S)-N-(4-(2,6-dimethoxyphenyl)-5-(methoxymethyl)-4H-1,2,4-triazol-3-yl)-1-ethoxy-1-(5-methylpyrimidin-2-yl)propane-2-sulfonamide] | 37.5 |
| COCc1nnc(NS(=O)(=O)[C@@H](C)[C@H](C)c2ccc(Cl)cn2)n1-c1c(OC)cccc1OC [Example 75.0, (2S,3R)-3-(5-chloropyridin-2-yl)-N-(4-(2,6-dimethoxyphenyl)-5-(methoxymethyl)-4H-1,2,4-triazol-3-yl)butane-2-sulfonamide] | 3.1 |
| COCc1nnc(NS(=O)(=O)[C@@H](C)[C@H](OC)c2ccc(Cl)cn2)n1-c1c(OC)cccc1OC [Example 76.0, (1R,2S)-1-(5-chloropyridin-2-yl)-N-(4-(2,6-dimethoxyphenyl)-5-(methoxymethyl)-4H-1,2,4-triazol-3-yl)-1-methoxypropane-2-sulfonamide] | 4.8 |
